Laboratory results: patent publication US20240139211A1, “METHODS AND COMPOSITIONS FOR TREATING AMYOTROPHIC LATERAL SCLEROSIS” (Amylyx Pharmaceuticals, Inc., priority 2022, published 2024)
Where two headings read alike, the source gives them in different places.

Columns and labels:
OATP1B1 = OATP1B1 (Homo sapiens, UniProt Q9Y6L6); assay: Substrate of OATP1B1, uptake in HEK293 cells
Excerpt: (§1) Vector-transfected HEK cells were used as a control.

BCRP = target: T1, BCRP (Homo sapiens, UniProt Q9UNQ0); assay: Substrate of BCRP (Caco-2 cells, selective inhibitor)
T1 sequence (Q9UNQ0 1-655): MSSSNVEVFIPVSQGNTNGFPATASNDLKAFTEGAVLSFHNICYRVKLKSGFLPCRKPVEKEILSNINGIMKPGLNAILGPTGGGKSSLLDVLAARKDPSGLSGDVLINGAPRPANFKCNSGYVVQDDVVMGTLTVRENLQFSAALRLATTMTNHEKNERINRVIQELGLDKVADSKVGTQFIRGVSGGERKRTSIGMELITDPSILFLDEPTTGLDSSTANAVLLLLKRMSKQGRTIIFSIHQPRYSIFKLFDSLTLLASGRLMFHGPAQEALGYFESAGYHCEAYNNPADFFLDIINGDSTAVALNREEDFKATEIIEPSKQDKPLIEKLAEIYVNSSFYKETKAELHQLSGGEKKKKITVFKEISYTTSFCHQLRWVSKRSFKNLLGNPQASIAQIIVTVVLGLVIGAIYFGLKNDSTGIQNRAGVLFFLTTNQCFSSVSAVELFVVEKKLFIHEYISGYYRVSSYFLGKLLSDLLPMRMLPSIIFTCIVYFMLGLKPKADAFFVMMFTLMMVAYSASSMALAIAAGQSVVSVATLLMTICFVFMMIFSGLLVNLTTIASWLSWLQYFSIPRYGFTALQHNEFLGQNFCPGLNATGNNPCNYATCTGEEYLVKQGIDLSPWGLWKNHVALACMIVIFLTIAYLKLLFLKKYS

CYP1A2 mRNA = assay: CYP1A2 gene expression induction in hepatocyte cultures; details: for Emax, CYP1A2 gene expression: Donor 1; for Inducer of CYP1A2 (conclusion): gene expression and enzyme activity, three donors
OCT2 = target: T2, OCT2 (Homo sapiens, UniProt O15244); assay: Substrate of OCT2, uptake in HEK293 cells
T2 sequence (O15244 1-555): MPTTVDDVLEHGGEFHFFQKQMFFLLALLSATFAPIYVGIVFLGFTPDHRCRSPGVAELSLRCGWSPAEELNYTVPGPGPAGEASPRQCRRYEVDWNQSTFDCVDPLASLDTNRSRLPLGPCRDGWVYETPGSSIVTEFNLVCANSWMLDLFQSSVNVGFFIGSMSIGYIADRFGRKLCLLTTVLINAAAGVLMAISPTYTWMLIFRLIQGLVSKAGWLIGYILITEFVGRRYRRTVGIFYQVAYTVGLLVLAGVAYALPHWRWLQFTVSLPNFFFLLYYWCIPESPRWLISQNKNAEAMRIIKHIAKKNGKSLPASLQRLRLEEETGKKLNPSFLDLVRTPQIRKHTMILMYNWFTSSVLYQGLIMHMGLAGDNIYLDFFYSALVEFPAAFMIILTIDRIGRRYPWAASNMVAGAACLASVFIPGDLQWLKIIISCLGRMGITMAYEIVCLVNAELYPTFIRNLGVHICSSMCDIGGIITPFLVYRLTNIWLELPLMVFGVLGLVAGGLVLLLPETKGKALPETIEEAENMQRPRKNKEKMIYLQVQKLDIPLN
Excerpt: as §1

CYP2B6 mRNA = assay: CYP2B6 gene expression induction in hepatocyte cultures; details: for EC50: read-out: EC50, CYP2B6 gene expression
human hepatocytes = assay: Stability of test articles in hepatocyte cultures; details: two concentrations
MATE1 [1] = target: T3, MATE1 (Homo sapiens, UniProt Q96FL8); assay: Substrate of MATE1, uptake in HEK293 cells
T3 sequence (Q96FL8 1-570): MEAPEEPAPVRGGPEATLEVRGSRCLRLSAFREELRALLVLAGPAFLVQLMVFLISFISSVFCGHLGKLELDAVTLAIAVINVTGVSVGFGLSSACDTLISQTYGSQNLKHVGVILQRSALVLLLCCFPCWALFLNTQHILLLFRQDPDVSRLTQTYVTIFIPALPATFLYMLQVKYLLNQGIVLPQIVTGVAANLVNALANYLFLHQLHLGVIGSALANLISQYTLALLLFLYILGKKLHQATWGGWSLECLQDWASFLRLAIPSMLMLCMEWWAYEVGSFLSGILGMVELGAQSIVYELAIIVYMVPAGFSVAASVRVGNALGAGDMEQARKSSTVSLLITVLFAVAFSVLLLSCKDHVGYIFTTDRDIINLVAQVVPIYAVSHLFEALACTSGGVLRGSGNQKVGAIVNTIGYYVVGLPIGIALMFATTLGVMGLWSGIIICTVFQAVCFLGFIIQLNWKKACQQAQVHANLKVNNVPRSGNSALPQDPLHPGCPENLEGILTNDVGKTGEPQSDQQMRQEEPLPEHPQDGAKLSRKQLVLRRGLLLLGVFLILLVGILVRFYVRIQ
Excerpt: as §1

MATE2K = MATE2K (Homo sapiens, UniProt Q86VL8); assay: Substrate of MATE2-K, uptake in HEK293 cells
MATE2K, sequence (Q86VL8 1-566 isoform Q86VL8-3): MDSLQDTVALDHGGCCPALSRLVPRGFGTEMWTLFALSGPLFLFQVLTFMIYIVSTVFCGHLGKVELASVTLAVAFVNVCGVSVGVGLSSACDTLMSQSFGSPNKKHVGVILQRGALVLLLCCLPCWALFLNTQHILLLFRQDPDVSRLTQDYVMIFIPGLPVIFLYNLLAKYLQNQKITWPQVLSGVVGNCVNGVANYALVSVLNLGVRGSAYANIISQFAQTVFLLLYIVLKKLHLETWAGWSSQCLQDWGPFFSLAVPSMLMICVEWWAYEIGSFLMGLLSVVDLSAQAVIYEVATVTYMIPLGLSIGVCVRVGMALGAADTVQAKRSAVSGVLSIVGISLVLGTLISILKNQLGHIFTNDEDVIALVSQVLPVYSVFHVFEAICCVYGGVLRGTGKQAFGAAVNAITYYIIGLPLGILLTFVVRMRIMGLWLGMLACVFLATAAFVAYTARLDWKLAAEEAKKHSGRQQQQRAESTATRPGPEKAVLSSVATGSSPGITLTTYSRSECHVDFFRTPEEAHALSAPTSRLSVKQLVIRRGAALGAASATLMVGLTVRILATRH
Excerpt: as §1

in vitro = details: human, Caco-2
MATE1 [2] = target: T3, MATE1; assay: Inhibitor of MATE1, probe substrate uptake; details: for Inhibition of MATE1 / Inhibitor of MATE1: two concentrations per test article; for potency estimated from few doses: read-out: Estimated IC50, MATE1
Caco-2 cells = details: for Permeability in Caco-2 cell assay: 1 and 10 μM (tauroursodeoxycholic acid: 10 μM)
[3] = test article 1 and 10 μM, Caco-2 cells
[4] = estimated from two concentrations
[5] = 1 and 10 μM, transport buffer alone

OATP1B1, sequence (Q9Y6L6 whole entry): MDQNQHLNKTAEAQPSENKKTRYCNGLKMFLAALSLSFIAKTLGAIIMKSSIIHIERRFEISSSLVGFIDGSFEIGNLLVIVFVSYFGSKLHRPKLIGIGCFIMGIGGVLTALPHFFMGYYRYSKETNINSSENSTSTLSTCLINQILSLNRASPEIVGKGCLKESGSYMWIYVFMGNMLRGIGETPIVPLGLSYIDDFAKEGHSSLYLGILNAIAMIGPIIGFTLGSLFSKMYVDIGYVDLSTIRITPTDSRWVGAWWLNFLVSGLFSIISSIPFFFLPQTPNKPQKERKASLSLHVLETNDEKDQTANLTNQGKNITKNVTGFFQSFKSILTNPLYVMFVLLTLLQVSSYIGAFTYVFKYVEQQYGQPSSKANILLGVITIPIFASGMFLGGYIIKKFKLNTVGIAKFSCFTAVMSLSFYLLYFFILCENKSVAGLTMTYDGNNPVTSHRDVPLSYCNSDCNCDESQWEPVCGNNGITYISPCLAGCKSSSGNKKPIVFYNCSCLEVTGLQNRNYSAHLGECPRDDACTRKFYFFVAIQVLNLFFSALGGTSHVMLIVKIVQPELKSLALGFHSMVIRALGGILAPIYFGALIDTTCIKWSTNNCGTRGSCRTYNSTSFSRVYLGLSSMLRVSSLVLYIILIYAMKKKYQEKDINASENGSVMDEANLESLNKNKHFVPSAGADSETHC

Molecule | Substrate of OATP1B1 (OATP1B1; 1 and 10 μM) | Substrate of OATP1B1 (OATP1B1; test article 1 and 10 μM) | Substrate of BCRP (BCRP; Caco-2, 1 and 10 μM) | Substrate of BCRP (BCRP; [3]) | Substrate of OCT2 (OCT2; 1 and 10 μM) | Substrate of OCT2 (OCT2; test article 1 and 10 μM) | Emax, CYP2B6 gene expression (CYP2B6 mRNA; Donor 1) | % of time zero remaining in hepatocyte cultures (human hepatocytes; 4 hours) | % of time zero remaining in hepatocyte cultures (human hepatocytes; 24 hours) | Substrate of MATE1 (MATE1 [1]; 1 and 10 μM) | Substrate of MATE1 (MATE1 [1]; test article 1 and 10 μM) | Substrate of MATE2-K (MATE2K; 1 and 10 μM) | Substrate of MATE2-K (MATE2K; test article 1 and 10 μM) | Papp A→B (in vitro) | Papp B→A (in vitro) | Inhibition of MATE1 (MATE1 [2]) | Inhibitor of MATE1 (MATE1 [2]) | Permeability in Caco-2 cell assay (Caco-2 cells) | % of time zero remaining in hepatocyte cultures (human hepatocytes; 1 hour) | potency estimated from few doses (MATE1 [2]; [4]) | further results
O=C(O)Cc1ccccc1 [Phenylacetic acid, phenylacetic acid] | not a substrate | No | not a substrate | No | not a substrate | No | 11.1 fold | ≤ 75.9% | ≤ 2.31% | not a substrate | No^a | identified as a substrate | Yes | ≥ 26.1 ×10⁻⁶ cm/s | ≥ 16.9 ×10⁻⁶ cm/s | did not inhibit | No^a | high permeability |  |  | Emax, CYP1A2 gene expression (CYP1A2 mRNA): 3.32 fold; Net MATE2-K uptake remaining with inhibitor (MATE2K; 10 μM): 64.1%; Uptake in MATE2-K cells (MATE2K; 10 μM): 84.2 pmol/min/mg; recovery (in vitro): ≥ 90.2%
C[C@H](CCC(=O)NCC(=O)O)[C@H]1CC[C@H]2[C@@H]3[C@@H](O)C[C@@H]4C[C@H](O)CC[C@]4(C)[C@H]3CC[C@]12C [Glycoursodeoxycholic acid, glycoursodeoxycholic acid] |  |  | as a substrate | Yes |  |  | 5.60 fold | ≤ 75.4% | ≤ 34.7% |  |  |  |  | ≥ 2.4 ×10⁻⁶ cm/s | ≥ 6.84 ×10⁻⁶ cm/s | inhibited | Yes | moderate permeability | ≤ 88.8% | > 100 µM | Fold uptake by OATP1B1 over vector control (OATP1B1; human, 5 min, 10 μM): 7.56 fold; Fold uptake by OATP1B1 over vector control with known inhibitors (OATP1B1; human, 5 min, 10 μM): 1.80 fold; Efflux remaining with Ko143 (BCRP; Caco-2): < 18.8%; Emax, CYP1A2 gene expression (CYP1A2 mRNA): 11.7 fold; Maximum fold induction of CYP1A2 gene expression (CYP1A2 mRNA; Donor 2): 13.0 fold; Maximum fold induction of CYP1A2 gene expression (CYP1A2 mRNA; Donor 3): 7.83 fold; Inducer of CYP1A2 (conclusion) (CYP1A2 mRNA): as an inducer; Emax, CYP2B6 gene expression (CYP2B6 mRNA; Donor 2): 4.53 fold; Maximum fold induction of CYP2B6 gene expression (CYP2B6 mRNA; Donor 2): 4.80 fold; Emax, CYP2B6 gene expression (CYP2B6 mRNA; Donor 3): 5.78 fold; Maximum fold induction of CYP2B6 gene expression (CYP2B6 mRNA; Donor 3): 5.68 fold; EC50 (CYP2B6 mRNA; Donor 2): 1.39 µM; EC50 (CYP2B6 mRNA; Donor 3): 1.48 µM; efflux ratio at 1 μM (in vitro): 1.86; efflux ratio at 10 μM (in vitro): 2.85; recovery (in vitro): ≥ 75%
ursodeoxycholic acid | not a substrate | No | not a substrate | No | not a substrate | No |  | ≤ 61.0% | ≤ 2.35% | not a substrate | No | not a substrate | No |  |  | inhibited | Yes | high in both directions | ≤ 93.1% | < 500 µM | potency estimated from few doses (MATE1 [2]; estimated from two doses): < 500 µM; Apparent permeability in both directions (Caco-2 cells; 1 and 10 μM): > 18 ×10⁻⁶ cm/s; Papp apical to basolateral (Caco-2 cells; [5]): ≥ 18.9 ×10⁻⁶ cm/s; Papp basolateral to apical (Caco-2 cells; [5]): ≥ 22.8 ×10⁻⁶ cm/s
O=C(O)CCCc1ccccc1 [PB, sodium phenylbutyrate] |  |  | not a substrate | No |  |  | 8.54 fold | ≤ 60.7% | 0% |  |  |  |  | ≤ 28.9 ×10⁻⁶ cm/s | 254 ×10⁻⁶ cm/s | inhibited | Yes | high permeability | ≤ 84.0% | < 250 µM | Emax, CYP2B6 gene expression (CYP2B6 mRNA; Donor 2): 24.4 fold; EC50 (CYP2B6 mRNA; Donor 1): 19.1 µM; EC50 (CYP2B6 mRNA; Donor 2): 108 µM; Decrease of MATE2-K uptake by known inhibitor (MATE2K; human, 2 min): > 25%; Uptake in MATE2-K cells (MATE2K; human, 2 min): 27.5 pmol/minute/mg protein; Uptake activity remaining, MATE1 (MATE1 [2]; 250 μM): 43.7%
tauroursodeoxycholic acid [TUDCA] | not a substrate | No | as a substrate | Yes | not a substrate | No |  | ≤ 75.9% | ≤ 23.5% | not a substrate | No | not a substrate | No |  |  | inhibited | Yes | moderate in both directions | ≤ 79.9% | > 50 µM | Inducer of CYP1A2 (conclusion) (CYP1A2 mRNA): did not meet the classification requirements to be identified as an inducer; Inducer of CYP2B6 (conclusion) (CYP2B6 mRNA; gene expression and enzyme activity, three donors): did not meet the classification requirements to be identified as an inducer; potency estimated from few doses (MATE1 [2]; estimated from two doses): > 50 µM; Papp basolateral to apical (Caco-2 cells; 1 μM): 8.17 ×10⁻⁶ cm/s; Papp apical to basolateral (Caco-2 cells; 10 μM): 2.43 ×10⁻⁶ cm/s; Papp basolateral to apical (Caco-2 cells; 10 μM): 3.6 ×10⁻⁶ cm/s
